From ChEMBL document CHEMBL1147435, “Synthesis and antibiotic activity of the tricyclic furo[3,2-c] isochromen-2-trione unit of the pyranonaphthoquinones” (2004)
Values after ≈ are worked out from the molar mass of the structure shown.

Columns and labels:
Type in all cases: functional
Bacillus subtilis [1] = test: Minimum bactericidal concentration of compound against Bacillus subtilis
Bacillus subtilis [2] = test: Minimum inhibitory concentration of compound against Bacillus subtilis
Staphylococcus aureus [3] = test: Minimum bactericidal concentration of compound against Staphylococcus aureus
Staphylococcus aureus [4] = test: Minimum inhibitory concentration of compound against Staphylococcus aureus

Row | MIC (Bacillus subtilis [2]) [µg/mL] | MIC (Staphylococcus aureus [4]) [µg/mL] | Structure (SMILES) | MBC (Bacillus subtilis [1]) [µg/mL] | MBC (Staphylococcus aureus [3]) [µg/mL]
1 | 128 (≈ 511 µM) | 128 (≈ 511 µM) | COc1ccc2c(c1OC)COC1CC(=O)OC21 (stereo not drawn) | > 128 | > 128
2 | 32 (≈ 128 µM) | 64 (≈ 256 µM) | COC1=CC(=O)C2=C(COC3CC(=O)OC23)C1=O (stereo not drawn) | 128 (≈ 512 µM) | > 128
